Test results: PMC11065314, “Identification of compounds that cause axonal dieback without cytotoxicity in dorsal root ganglia explants and intervertebral disc cells with potential to treat pain via denervation” (PLOS ONE, 2024)
Several values for one entry are separate records, joined by “and”; a condition that tells them apart may be missing. Equal values may be shown once. Where a name gives a salt, the structure may show the parent alone. Read-outs that look alike come from different tables or passages of the source.

Assays:
adult rat DRG explants = type: cell-based
[1] = Quantification of viable NP cells (LIVE/DEAD staining); type: cell-based, human; settings: both sexes, human, human nucleus pulposus (NP) cells; 10 to 500 nM, day 3 post-treat; read-out: Percentage of viable cells
Experimental: (§1) Nucleus pulposus (NP) cells are native matrix-producing cells at the core of intervertebral discs. To repurpose axonal dieback compounds to denervate aberrant nerve fibers in discs related to chronic LBP, the cytocompatibility of these compounds with NP cells must be evaluated. Human NP cells (Sciencell, 4800) from donor 1 (Lot #5954) and donor 2 (Lot# 21579) were cultured according to previously established protocol in our lab adapted from manufacturer’s instructions. Briefly, passage three cells from both donors were expanded in Poly-L-lysine (PLL) (Sciencell, 413) coated T75 flasks. Cells were then lifted and reseeded at 5,000 cells/cm^2 onto two PLL-coated 48-well plates (Greiner Bio-One, 677180) and allowed to attach overnight before treating with Pyr or Vcr. One plate was used for LIVE/DEAD staining and the other plate was used for AlamarBlue assay as described below. Complete NP cell media (Sciencell, 4801) containing basal media supplemented with 1% penicillin-streptomycin, 1% growth supplement and 2% FBS were used for maintaining cells in culture. To mimic the hypoxic disc environment, NP cells were cultured in a hypoxia chamber (Stem Cell Technologies, 27310) with 5% CO2, 3.5% O2, 91.5% N2 (Airgas) during the entire culture and treatment incubation period.
(§2) Pyr stock solution was diluted in complete NP media to achieve final concentrations of 500 μM, 1 mM and 2 mM Pyr. 16.9 μg/mL and 169 μg/mL Vcr stock solutions were prepared in 1X PBS then diluted in complete NP media to achieve final concentrations of 10, 25, 50, 100 nM and 200, 500 nM, respectively. Cells were incubated with 250 μL of final treatment solutions in duplicate wells per donor for three days. Cells in negative control group were incubated with 250 μL of complete NP media with 0.55% v/v 1X PBS as solvent control. On day 3 post-treatment, brightfield images at 4X magnification were taken using a BioTek Cytation1 Plate Imager (Agilent) to verify cell proliferation and observe cell morphology. Three experimental replicates were performed for each cell donor.
(§3) On day 3 of incubation with drug, media treatment solutions were removed from each well and cells were carefully rinsed with 200 μL of sterile 1X PBS to remove excess media. NP cells were stained with 150 μL of 2 μM Calcein AM and 6 μM EtHD-1 solution from LIVE/DEAD Viability/Cytotoxicity Kit (Thermo Fisher Scientific, L3224) for 30 minutes at room temperature protected from light. After staining, cells were gently rinsed with 200 μL sterile 1X PBS to remove excess staining solution. Excitation and emission wavelengths for live cell fluorescence is 495 and 515 nm and dead cell fluorescence is 495 and 635 nm. Using a BioTek Cytation1 Plate Imager (Agilent), GFP filter cube (Agilent, 1225101, ex: 451.5–486.5 nm, em: 505.5–544.5 nm) and RFP filter cubes (Agilent, 1225103, ex: 511-551nm, em: 573–613 nm), fluorescent images at 4X magnification of four regions per well were taken. Gen5 v3.11 software (Agilent) was used to count green (live) and orange (dead) cells in fluorescent images. Dead NP cell staining was verified and evident by positive EtHD-1 orange staining in kill control wells where cells were treated with 70% EtOH for 10 minutes (S4 Fig). Percentage of live cells were calculated by calculating the percentage of live cells over total cell counts as shown in Eq 3.
(§4) Cellviability(%)=Livecellcounts/Livecellcounts+Deadcellcounts×100% (3)

Human NP cells [2] = assay: as above; type: cell-based
Experimental: as §1, §2, §3, §4

Human NP cells [3] = assay: NP cell metabolic activity (AlamarBlue reduction); type: cell-based;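 on AB reduction per cell (%): percent AlamarBlue reduction per manufacturer divided by estimated total cells per well from LIVE/DEAD counts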
Experimental: as §1, §2
On day 3 of incubation with drugs, 25 μL (10% v/v of media volume) of AlamarBlue HS cell viability reagent (Thermo Fisher Scientific, A50100) were added into each well. Cells were incubated with the AlamarBlue reagent for 2 hours at 37°C under hypoxia then 60 μL aliquots of cell media were removed in duplicates into a 96-well plate. The absorbance at 570 and 600 nm were read using a microplate reader (Agilent) and calculations for AlamarBlue reduction were calculated according to the manufacturer’s protocol. To account for different cell confluency between donors and groups, AlamarBlue reduction was normalized to estimated total number of cells per well obtained from LIVE/DEAD staining. Cellular metabolic activity in treated groups was reported as a ratio of normalized AlamarBlue reduction to PBS control group.

[4] = tested on: dissociated DRG neurons from embryonic mice; set-up: method as in PMID 31484833; settings: 40 nM; cited from earlier work
[5] = systemic administration; cited from earlier work
[6] = 10 nM, donor 1, day 3, single wells (Exp, Rep)
[7] = 25 nM, donor 1, day 3, single wells (Exp, Rep)
[8] = 25 nM, donor 2, day 3, single wells (Exp, Rep)
[9] = 50 nM, donor 1, day 3, single wells (Exp, Rep)
[10] = 50 nM, donor 2, day 3, single wells (Exp, Rep)
[11] = 100 nM, donor 1, day 3, single wells (Exp, Rep)
[12] = 100 nM, donor 2, day 3, single wells (Exp, Rep)
[13] = 200 nM, donor 1, day 3, single wells (Exp, Rep)
[14] = 200 nM, donor 2, day 3, single wells (Exp, Rep)
[15] = 500 nM, donor 1, day 3, single wells (Exp, Rep)

Which “Axon length ratio compared to PBS control” value (adult rat DRG explants) does the source give for CC[C@]1(O)C[C@H]2CN(CCc3c([nH]c4ccccc34)[C@@](C(=O)OC)(c3cc4c(cc3OC)N(C=O)[C@H]3[C@@](O)(C(=O)OC)[C@H](OC(C)=O)[C@]5(CC)C=CCN6CC[C@]43[C@@H]65)C2)C1 [Vcr, vincristine sulfate] here?
Its value is “significantly lower axon length ratio than PBS control”.

What about the “Day on which Caps axon length ratio threshold (0.45) was met” value (adult rat DRG explants) of the same molecule?
Its value is at most 1 days.

And the “Original axon length left behind” value (adult rat DRG explants)?
The value was “less than 8.1%”.

And the “Day on which Caps axon length ratio threshold (0.45) was met” value (adult rat DRG explants; 100 nM)?
The value was at most 2 days.

What about the viability at 3 days [1] of the same molecule?
Its viability at 3 days is over 81%.

And the “Percent live (%)” value (Human NP cells [2]; [6])?
The value was 90.3134% and 98.5594% and 99.6198% and 83.3102% and 99.7603% and 99.2074%.

And the “Percent live (%)” value (Human NP cells [2]; [7])?
Its value is 89.2996% and 89.1566% and 99.4877% and 99.866% and 98.4016% and 98.5294%.

And the “Percent live (%)” value (Human NP cells [2]; [8])?
The value was 97.6127% and 96.3918% and 89.1374% and 87.5648% and 97.9899% and 92.8571%.

What about the “Percent live (%)” value (Human NP cells [2]; [9]) of the same molecule?
The value was 99.536% and 94.3223% and 95.1923% and 99.2108% and 99.6933% and 99.3363%.

What about the “Percent live (%)” value (Human NP cells [2]; [10]) of the same molecule?
The value was 98.5163% and 97.4555% and 94.0054% and 88.1057% and 96.8127% and 94.0758%.

What about the “Percent live (%)” value (Human NP cells [2]; [11]) of the same molecule?
The value was 98.9571% and 99.7976% and 95.6589% and 96.3247% and 98.866% and 99.2797%.

And the “Percent live (%)” value (Human NP cells [2]; [12])?
The value was 99.5495% and 99.5885% and 95.3125% and 93.5614% and 98.018% and 96.1078%.

What about the “Percent live (%)” value (Human NP cells [2]; [13]) of the same molecule?
Its value is 96.7883% and 99.5461% and 93.2203% and 99.7674% and 98.7402% and 97.893%.

And the “Percent live (%)” value (Human NP cells [2]; [14])?
Its value is 98.9101% and 97.7221% and 91.7808% and 91.6988% and 97.8182% and 96.8701%.

What about the “Percent live (%)” value (Human NP cells [2]; [15]) of the same molecule?
The value was 99.2% and 97.9245% and 96.5986% and 97.28% and 92.5651% and 91.0506%.

What about the “AB reduction per cell (%)” value (Human NP cells [3]; [6]) of the same molecule?
Its value is 0.002283% and 0.00154% and 0.001747% and 0.002442% and 0.00231% and 0.002706%.

What about the “AB reduction per cell (%)” value (Human NP cells [3]; 10 nM, donor 2, day 3, single wells (Exp, Rep)) of the same molecule?
Its value is 0.001215% and 0.001339% and 0.005412% and 0.01334% and 0.005031% and 0.005908%.

And the “AB reduction per cell (%)” value (Human NP cells [3]; [7])?
The value was 0.001389% and 0.003739% and 0.002704% and 0.002205% and 0.001365% and 0.001406%.

What about the “AB reduction per cell (%)” value (Human NP cells [3]; [8]) of the same molecule?
The value was 0.003051% and 0.007629% and 0.005557% and 0.004909% and 0.001181% and 0.0009857%.

What about the “AB reduction per cell (%)” value (Human NP cells [3]; [9]) of the same molecule?
The value was 0.001753% and 0.001156% and 0.00138% and 0.00139% and 0.003609% and 0.003175%.

What about the “AB reduction per cell (%)” value (Human NP cells [3]; [10]) of the same molecule?
Its value is 0.0005415% and 0.0008201% and 0.002435% and 0.002975% and 0.005792% and 0.00531%.

What about the “AB reduction per cell (%)” value (Human NP cells [3]; [11]) of the same molecule?
Its value is 0.001416% and 0.0009649% and 0.001537% and 0.002073% and 0.00337% and 0.003265%.

What about the “AB reduction per cell (%)” value (Human NP cells [3]; [12]) of the same molecule?
Its value is 0.0006846% and 0.0007833% and 0.00204% and 0.002057% and 0.009145% and 0.008838%.

What about the “AB reduction per cell (%)” value (Human NP cells [3]; [13]) of the same molecule?
Its value is 0.001363% and 0.0008921% and 0.002395% and 0.003983% and 0.00365% and 0.004535%.

What about the “AB reduction per cell (%)” value (Human NP cells [3]; [14]) of the same molecule?
The value was 0.0005853% and 0.0004556% and 0.002302% and 0.00249% and 0.005313% and 0.004842%.

What about the “AB reduction per cell (%)” value (Human NP cells [3]; [15]) of the same molecule?
Its value is 0.001679% and 0.00128% and 0.002381% and 0.004274% and 0.005712% and 0.005618%.

And the “AB reduction per cell (%)” value (Human NP cells [3]; 500 nM, donor 2, day 3, single wells (Exp, Rep))?
The value was 0.0008561% and 0.0008471% and 0.004331% and 0.0268% and 0.00643% and 0.009026%.

What about the “Cellular metabolic activity compared to PBS control” value (Human NP cells [3]; 10 to 500 nM, donor 1 and 2, day 3) of the same molecule?
Its value is “No significant differences were detected”.

And the “Time to axon degeneration” value [4]?
Its value is at most 12 h.

What about the “Time to complete axon fragmentation” value [4] of the same molecule?
The value was at most 36 h.

What about the “Chemotherapy patients developing peripheral neuropathy” value [5] of the same molecule?
Its value is 96%.
